Source: patent publication US20080214845A1, “ANTIBACTERIAL 6'-MODIFIED 4,5-SUBSTITUTED AMINOGLYCOSIDE ANALOGS” (priority 2005, published 2008)
In brackets after ≈: the same amount, converted by molar mass.

What was measured:
[1] = system: Staphylococcus aureus (Smith strain ATCC 13709); assay: Staphylococcus aureus mouse protection assay; assay type: in vivo; conditions: Staph conc. 10^6 IP in 10% mucin, treatments at 1 hour and 3 hour post infection
Description: Two of the novel aminoglycoside compounds of the invention were examined for their anitbacterial activity against staphylococcus aureus. The mice were infected IP with 0.5 ml […] staphylococcus aureus in 10% mucin. There were 10 mice in each treated group with treatments at 1 hour and 3 hour post infection. The Ibis compounds (IBIS00561085 R4═R5═CH3 and IBIS00561141 R4═H, R5═(CH2)2C6H5) were used at 75 mg/kg, 37.5 mg/kg, 18.8 mg/kg, 9.4 mg/kg, 4.7 mg/kg, 2.3 mg/kg, 1.17 mg/kg and 0.5 mg/kg. Amakacin, Paromomycin and Neomycin were used as the positive controls at concentration of 2 mg/kg, 1 mg/kg and 0.5 mg/kg.

[2] = target: 18S; assay: 18S Kd by FTICR mass spectrometry; assay type: binding
Description: (§1) Was performed according to the published report; […]-Lowery, […].; Mohan, […]. et al. Characterization of Low Affinity Complexes Between RNA and Small Molecules Using Electrospray Ionization Mass Spectrometry. J. Am. Chem. […] Screening is performed by measuring the formation of non-covalent complexes between a single ligand or ligand mixture and the appropriate RNA target, along with suitable control structured RNA target(s) simultaneously using a 9.4 T FT-ICR mass spectrometer as detector. Full experimental details of the assay have been described in related literature ([…]-Lowery, et al. in TrAC, Trends Anal. […] The abundances were integrated from the respective ions for free RNA and the ligand-RNA complex. […] The peak ratios are measured at each concentration, then a plot of complex/free RNA versus concentration of ligand added is fitted to a second (or higher) order binding polynomial to determine the KD.

[3] = target: 16S; assay: Measurement of 16S Kd by FTICR mass spectrometry; assay type: binding
Description: as §1

[4] = system: E. coli S30 bacterial extract (pBest Luc luciferase transcription/translation); assay: Coupled bacterial transcription/translation assay (T/T); assay type: biochemical; conditions: luciferase reporter, 35 minutes at 37° C., read-out: Trans/Trans IC50
Description: The DNA template, pBest Luc™ (Promega), is a plasmid containing a reporter gene for firefly luciferase fused to a strong tac promoter and ribosome binding site. Messenger RNA from 1 μg pBestLuc was transcribed and translated in E. coli S30 bacterial extract in the presence or absence of test compound. Compounds were tested in a black 96 well microtiter plate with an assay volume of […]. Each test well contained: 5 μL test compound, 13 μL S30 premix (Promega), 4 μL 10× complete amino acid mix (1 mM each), 5 μL E. coli S30 extract and 8 μL of 0.125 μg/μL pBest Luc™. The transcription/translation reaction was incubated for 35 minutes at 37° C. followed by detection of functional luciferase with the addition of 30 μL LucLite™ (Packard). Light output was quantitated on a Packard TopCount.

[5] = system: E. Coli.; assay: Minimum inhibitory concentration (MIC), E. coli; assay type: cell-based; conditions: range of concentration, 20-24 hours at 37° C., A595
Description: (§2) The assays are carried out in 150 μL volume in duplicate in 96-well clear flat-bottom plates. The bacterial suspension from an overnight culture growth in appropriate medium is added to a solution of test compound in 2.5% DMSO in water. Final bacterial inoculum is approximately 10^2-10^3 CFU/well. The percentage growth of the bacteria in test wells relative to that observed for a control wells containing no compound is determined by measuring absorbance at 595 nm (A595) after 20-24 hours at 37° C. The MIC is determined as a range of concentration where complete inhibition of growth is observed at the higher concentration and bacterial cells are viable at the lower concentration. Both ampicillin and tetracycline are used as antibiotic positive controls in each screening assay.

[6] = system: S. Aureus; assay: Minimum inhibitory concentration (MIC), S. aureus; assay type: cell-based; conditions: range of concentration, 20-24 hours at 37° C., A595
Description: as §2

Structure (SMILES)	# Dead mice/Total mice in group ([1]; 0.5 mg/kg)	# Dead mice/Total mice in group ([1]; 1 mg/kg)	# Dead mice/Total mice in group ([1]; 2 mg/kg)	# Dead mice/Total mice in group ([1]; 4.5 mg/kg)	# Dead mice/Total mice in group ([1]; 9 mg/kg)	# Dead mice/Total mice in group ([1]; 18 mg/kg)	# Dead mice/Total mice in group ([1]; 37 mg/kg)	# Dead mice/Total mice in group ([1]; 75 mg/kg)	Kd [2]	Kd [3]	IC50 [4]	MIC E. Coli. [5]	MIC S. Aureus [6]	MIC ([5]; Escherichia coli)	MIC ([6]; Staphylococcus aureus)
NCC1OC(OC2C(CO)OC(OC3C(O)C(N)CC(N)C3OC3OC(CNCCc4ccccc4)C(O)C(O)C3N)C2O)C(N)C(O)C1O (stereo not drawn) [IBIS00561141]	7/10 (10% Mucin).	0/10 (10% Mucin)	0/10 (10% Mucin)	0/10 (10% Mucin)	0/10 (10% Mucin)	0/10 (10% Mucin)	0/10 (10% Mucin)	0/10 (10% Mucin)	2160 nM	496 nM	200 nM	1.25 to 2.5 µM	0.3125 to 0.625 µM	–	–
NC[C@@H]1O[C@H](O[C@H]2[C@@H](O)[C@H](O[C@@H]3[C@@H](O)[C@H](N)C[C@H](N)[C@H]3O[C@H]3O[C@H](CN4CCOCC4)[C@@H](O)[C@H](O)[C@H]3N)O[C@@H]2CO)[C@H](N)[C@@H](O)[C@@H]1O [IBIS00561142]	–	–	–	–	–	–	–	–	3000 nM	3640 nM	349 nM	–	–	20 to 40 µM (≈ 13.7 to 27.4 µg/mL)	10 to 20 µM (≈ 6.85 to 13.7 µg/mL)
